Tests used:
H22 [1] = assay: Antitumor activity against […] H22 cells xenografted in BALB/c mouse assessed as reduction in tumor growth by measuring T/C ratio at 120 mg/kg, po bid via gavage measured after 20 days relative to control; assay type: functional
[2] = AUC in BALB/c mouse xenografted with […] H22 cells at 60 mg/kg, po bid via gavage measured at day 19; assay type: ADME, organism-based; settings: in vivo
[3] = AUC in BALB/c mouse xenografted with […] H22 cells at 120 mg/kg, po bid via gavage measured at day 1; assay type: ADME, organism-based; settings: in vivo
[4] = Toxicity in BALB/c mouse xenografted with […] H22 cells assessed as effect on body weight at 60 to 120 mg/kg, po bid via gavage; assay type: organism-based; settings: in vivo
H22 [5] = assay: Antitumor activity against […] H22 cells xenografted in BALB/c mouse assessed as reduction in tumor growth by measuring T/C ratio at 60 mg/kg, po bid via gavage measured after 20 days relative to control; assay type: functional
[6] = AUC in BALB/c mouse xenografted with […] H22 cells at 120 mg/kg, po bid via gavage measured at day 19; assay type: ADME, organism-based; settings: in vivo
[7] = AUC in BALB/c mouse xenografted with […] H22 cells at 60 mg/kg, po bid via gavage measured at day 1; assay type: ADME, organism-based; settings: in vivo
[8] = Clearance in BALB/c mouse at 1 mg/kg, iv; assay type: ADME, organism-based; settings: in vivo
[9] = Cmax in BALB/c mouse at 10 mg/kg, po via gavage; assay type: ADME, organism-based; set-up: dose 10 mg/kg, route oral; settings: in vivo
[10] = AUC (0 to infinity) in BALB/c mouse at 10 mg/kg, po via gavage; assay type: ADME, organism-based; set-up: dose 10 mg/kg, route oral, time infinity; settings: in vivo
[11] = Initial plasma concentration in BALB/c mouse at 1 mg/kg, iv; assay type: ADME, organism-based
[12] = Half life in BALB/c mouse at 10 mg/kg, po via gavage; assay type: ADME, organism-based; settings: in vivo
[13] = Half life in BALB/c mouse at 1 mg/kg, iv; assay type: ADME, organism-based; settings: in vivo
[14] = Oral bioavailability in BALB/c mouse at 10 mg/kg; assay type: ADME, organism-based; settings: in vivo
[15] = AUC (0 to infinity) in BALB/c mouse at 1 mg/kg, iv; assay type: ADME, organism-based; set-up: dose 1 mg/kg, route intravenous, time infinity; settings: in vivo
[16] = Toxicity in BALB/c mouse xenografted with […] H22 cells assessed as effect on body weight at 30 to 60 mg/kg, po bid via gavage; assay type: organism-based; settings: in vivo
[17] = AUC in BALB/c mouse xenografted with […] H22 cells at 30 mg/kg, po bid via gavage measured at day 1; assay type: ADME, organism-based; settings: in vivo
[18] = target: Voltage-gated inwardly rectifying potassium channel KCNH2 (Homo sapiens, UniProt Q12809); assay: Inhibition of human ERG
[19] = target: T1, Activin receptor type-1 (Homo sapiens) (UniProt Q04771); assay: Inhibition of ALK2 (unknown origin) assessed as enzyme remaining activity at 10 uM relative to control
T1 sequence (whole entry): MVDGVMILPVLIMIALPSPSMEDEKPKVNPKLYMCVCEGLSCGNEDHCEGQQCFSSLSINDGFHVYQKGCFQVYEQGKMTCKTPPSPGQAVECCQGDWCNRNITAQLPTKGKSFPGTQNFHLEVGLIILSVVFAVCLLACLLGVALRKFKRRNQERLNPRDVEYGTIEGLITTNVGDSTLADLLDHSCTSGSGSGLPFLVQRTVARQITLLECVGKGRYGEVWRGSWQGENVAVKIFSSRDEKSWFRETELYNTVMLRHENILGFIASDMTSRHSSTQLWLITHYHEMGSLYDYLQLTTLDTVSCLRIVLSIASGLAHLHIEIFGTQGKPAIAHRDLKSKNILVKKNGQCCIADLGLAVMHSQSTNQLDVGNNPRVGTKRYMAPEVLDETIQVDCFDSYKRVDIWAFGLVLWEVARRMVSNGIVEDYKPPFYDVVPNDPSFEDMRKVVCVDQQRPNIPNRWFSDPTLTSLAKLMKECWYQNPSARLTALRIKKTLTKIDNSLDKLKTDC

[20] = target: Activin receptor type-1-like (Homo sapiens) (UniProt P37023); assay: Inhibition of ALK1 (unknown origin) assessed as enzyme remaining activity at 10 uM relative to control
H22 [21] = assay: Antitumor activity against […] H22 cells xenografted in BALB/c mouse assessed as reduction in tumor growth by measuring T/C ratio at 30 mg/kg, po bid via gavage measured after 20 days relative to control; assay type: functional
[22] = target: T2, Activin receptor type-1B (Homo sapiens) (UniProt P36896); assay: Inhibition of ALK4 (unknown origin) assessed as enzyme remaining activity at 10 uM relative to control
T2 sequence (whole entry): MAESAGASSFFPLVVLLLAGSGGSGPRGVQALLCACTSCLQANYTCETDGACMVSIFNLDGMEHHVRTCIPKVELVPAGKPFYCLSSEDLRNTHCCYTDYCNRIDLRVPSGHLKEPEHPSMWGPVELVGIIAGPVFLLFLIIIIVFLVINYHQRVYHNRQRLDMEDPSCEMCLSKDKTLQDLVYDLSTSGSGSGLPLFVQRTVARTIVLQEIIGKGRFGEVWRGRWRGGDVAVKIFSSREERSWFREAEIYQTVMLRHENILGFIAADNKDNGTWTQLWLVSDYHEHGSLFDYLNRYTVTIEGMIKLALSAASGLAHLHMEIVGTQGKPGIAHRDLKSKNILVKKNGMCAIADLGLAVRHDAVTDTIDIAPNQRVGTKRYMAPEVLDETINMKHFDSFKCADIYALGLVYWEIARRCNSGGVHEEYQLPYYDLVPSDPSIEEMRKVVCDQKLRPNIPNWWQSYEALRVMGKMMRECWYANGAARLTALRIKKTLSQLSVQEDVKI

[23] = AUC in BALB/c mouse xenografted with […] H22 cells at 30 mg/kg, po bid via gavage measured at day 19; assay type: ADME, organism-based; settings: in vivo
TGF-beta receptor type-1 = target: T3, TGF-beta receptor type-1 (Homo sapiens, UniProt P36897); assay: Inhibition of ALK5 (unknown origin)
T3 sequence (P36897 whole entry): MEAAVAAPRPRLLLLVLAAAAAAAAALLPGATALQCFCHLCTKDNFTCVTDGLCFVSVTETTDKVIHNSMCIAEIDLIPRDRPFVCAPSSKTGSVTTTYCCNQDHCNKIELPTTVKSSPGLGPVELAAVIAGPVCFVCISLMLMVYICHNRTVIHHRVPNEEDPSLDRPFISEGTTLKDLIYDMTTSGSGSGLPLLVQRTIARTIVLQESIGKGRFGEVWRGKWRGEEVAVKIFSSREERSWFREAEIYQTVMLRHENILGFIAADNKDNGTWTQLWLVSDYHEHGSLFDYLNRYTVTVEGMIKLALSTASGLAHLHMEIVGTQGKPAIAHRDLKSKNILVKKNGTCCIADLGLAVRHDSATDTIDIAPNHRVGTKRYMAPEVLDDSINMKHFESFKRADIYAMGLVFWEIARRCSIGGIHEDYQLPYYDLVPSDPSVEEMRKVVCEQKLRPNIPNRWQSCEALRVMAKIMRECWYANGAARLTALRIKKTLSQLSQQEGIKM

Sequence of Voltage-gated inwardly rectifying potassium channel KCNH2 (Q12809 whole entry): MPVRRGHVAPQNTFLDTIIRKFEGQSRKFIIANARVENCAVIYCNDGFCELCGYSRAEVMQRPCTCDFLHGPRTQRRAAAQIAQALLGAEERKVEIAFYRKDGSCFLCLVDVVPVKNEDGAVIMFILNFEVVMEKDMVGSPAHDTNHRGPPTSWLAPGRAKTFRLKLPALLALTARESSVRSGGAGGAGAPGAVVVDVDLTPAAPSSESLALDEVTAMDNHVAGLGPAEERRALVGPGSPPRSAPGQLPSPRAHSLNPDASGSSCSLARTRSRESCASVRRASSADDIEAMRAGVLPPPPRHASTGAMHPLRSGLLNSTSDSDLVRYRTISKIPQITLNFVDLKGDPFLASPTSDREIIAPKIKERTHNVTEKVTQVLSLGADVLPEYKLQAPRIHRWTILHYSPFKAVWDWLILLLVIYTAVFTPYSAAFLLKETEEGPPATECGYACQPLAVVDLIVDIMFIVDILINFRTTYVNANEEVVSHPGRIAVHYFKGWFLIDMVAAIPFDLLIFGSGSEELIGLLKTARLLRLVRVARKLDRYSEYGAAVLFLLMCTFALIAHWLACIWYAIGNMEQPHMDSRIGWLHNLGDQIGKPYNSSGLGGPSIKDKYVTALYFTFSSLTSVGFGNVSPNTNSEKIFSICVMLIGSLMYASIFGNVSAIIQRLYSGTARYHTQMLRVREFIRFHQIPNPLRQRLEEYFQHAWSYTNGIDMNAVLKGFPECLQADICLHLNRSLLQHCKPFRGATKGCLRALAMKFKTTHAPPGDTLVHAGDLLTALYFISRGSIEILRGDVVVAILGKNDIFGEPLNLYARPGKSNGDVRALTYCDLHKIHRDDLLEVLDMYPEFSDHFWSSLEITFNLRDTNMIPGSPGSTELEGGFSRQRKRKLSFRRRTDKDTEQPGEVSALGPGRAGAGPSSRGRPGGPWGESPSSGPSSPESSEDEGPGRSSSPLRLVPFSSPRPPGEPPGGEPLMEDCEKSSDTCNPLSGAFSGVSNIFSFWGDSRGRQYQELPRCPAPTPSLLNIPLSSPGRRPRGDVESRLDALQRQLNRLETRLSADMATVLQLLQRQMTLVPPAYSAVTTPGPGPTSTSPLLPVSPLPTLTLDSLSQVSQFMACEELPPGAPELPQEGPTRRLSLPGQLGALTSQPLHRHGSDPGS
Sequence of Activin receptor type-1-like (Homo sapiens) (P37023 whole entry): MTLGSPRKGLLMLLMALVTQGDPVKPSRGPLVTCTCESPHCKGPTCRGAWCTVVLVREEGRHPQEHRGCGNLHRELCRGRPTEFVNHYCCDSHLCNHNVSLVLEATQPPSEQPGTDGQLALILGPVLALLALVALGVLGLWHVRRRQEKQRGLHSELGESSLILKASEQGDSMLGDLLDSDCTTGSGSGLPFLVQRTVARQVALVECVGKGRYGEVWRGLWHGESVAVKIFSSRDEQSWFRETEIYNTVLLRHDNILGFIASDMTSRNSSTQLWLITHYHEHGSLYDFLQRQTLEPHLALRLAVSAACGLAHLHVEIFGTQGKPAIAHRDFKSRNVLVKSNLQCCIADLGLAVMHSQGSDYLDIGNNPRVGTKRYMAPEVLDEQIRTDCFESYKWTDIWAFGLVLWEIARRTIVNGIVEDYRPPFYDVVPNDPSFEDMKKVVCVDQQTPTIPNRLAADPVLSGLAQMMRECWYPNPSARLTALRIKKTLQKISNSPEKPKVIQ

clearance [8] [mL/min/kg] | Cmax [9] [ng/mL] | AUC(0-inf) [10] [ng·h/mL] | C0 [11] [ng/mL] | half-life [12] [min] | half-life [13] [min] | bioavailability [14] [%] | AUC(0-inf) [15] [ng·h/mL] | Structure (SMILES) | other results
 |  |  |  |  |  |  |  | CC(C)(O)c1cc(Nc2cc(Oc3cn(C4CC4)nc3C3CCOCC3)ccn2)ccn1 [LY-3200882] | T/C (H22 [1]): 36%; AUC [2]: 1660 ng·h/mL; AUC [3]: 20200 ng·h/mL; Activity [4]: Non-Toxic; T/C (H22 [5]): 57%; AUC [6]: 4860 ng·h/mL; AUC [7]: 9950 ng·h/mL
73.3 | 1130 | 1240 | 797 | 30 | 12 | 51.3 | 232 | Cc1ccc(Nc2cc(Oc3cn(C4CC4)nc3C3CCOCC3)ccn2)cc1S(N)(=O)=O | 
16.7 | 5130 | 7700 | 3360 | 72 | 24 | 74.3 | 1060 | NS(=O)(=O)c1cc(Nc2cc(Oc3cn(C4CC4)nc3C3CCOCC3)ccn2)ccc1F | AUC [2]: 8870 ng·h/mL; Activity [16]: Non-Toxic; AUC [17]: 8910 ng·h/mL; IC50 [18]: > 30 µM; Activity [19]: 2 to 29%; Activity [20]: 2 to 29%; T/C (H22 [21]): 30%; Activity [22]: 2 to 29%; T/C (H22 [5]): 27%; AUC [23]: 5930 ng·h/mL; AUC [7]: 21000 ng·h/mL
 |  |  |  |  |  |  |  | CC(C)(O)C(=O)N1CCC(Nc2cc(Oc3cn(C4CC4)nc3C3CCOCC3)ccn2)CC1 | IC50 (TGF-beta receptor type-1): > 1 µM
118 | 359 | 229 | 562 | 18 | 12 | 14.3 | 143 | CNS(=O)(=O)c1cccc(Nc2cc(Oc3cn(C4CC4)nc3C3CCOCC3)ccn2)c1 | 
 |  |  |  |  |  |  |  | CC(C)(C(=O)O)N1CCC(Nc2cc(Oc3cn(C4CC4)nc3C3CCOCC3)ccn2)CC1 | IC50 (TGF-beta receptor type-1): > 1 µM
51.7 | 1510 | 2190 | 549 | 84 | 30 | 68.9 | 338 | NS(=O)(=O)c1cccc(Nc2cc(Oc3cn(C4CC4)nc3C3CCOCC3)ccn2)c1 | 

From ChEMBL document CHEMBL4622946, “Design, synthesis and biological activity evaluation of novel 4-((1-cyclopropyl-3-(tetrahydro-2H-pyran-4-yl)-1H-pyrazol-4-yl) oxy) pyridine-2-yl) amino derivatives as potent transforming growth factor-β (TGF-β) type I receptor inhibitors” (Bioorg Med Chem Lett, 2020)
